Test results: patent US6297024A, “Methods for assessing complement activation” (Cell Activation, Inc., priority 1999, dated 2001)
“Also recorded” adds a separate entry of the source.

Tests used:
[1] = tested on: in vitro complement activation (C3 and C4 conversion; MASP-2); assay: in vitro complement activation (C3a and C4a by RIA) in plasma of liver transplant patients; format: biochemical, human
Experimental: Blood from nineteen liver transplant patients was collected in 0.1 mg/ml Futhan and 0.5 mg/ml EDTA. The C3a and C4a levels were measured at 0 time and after 1 hr at room temperature. These samples were obtained during routine visits by the patients having no signs of acute rejection episodes.
Blood samples of 5-10 ml were drawn from normal donors, liver transplant and SLE (lupus) patients under an approved Human Subjects protocol #96-293 and all individuals were asked to sign an informed consent form agreeing to be voluntary donors. Normal donors were a random group of male and female individuals between the ages of 27-48. Liver transplant patients were selected from a group of patients being routinely followed at The Scripps Clinic Foundation by Dr. John Brems. None of these organ transplant patients were experiencing acute rejection episodes at the time that the blood was drawn.
(§1) Blood samples were either drawn into EDTA tubes (Venoject, Terumo Corp. Elkston, Md.) or Futhan/EDTA tubes (Venoject, Terumo Europe, Leuven, Belgium). The plasma was collected immediately by centrifugation at 2000 g for 15 min. at 4° C. unless otherwise indicated. The plasma samples were either processed immediately for analysis or snap frozen in liquid nitrogen and stored at -70° C. Frozen samples were thawed at 4° C. and processed as described in the text.
(§2) Equal volumes of the plasma sample and the precipitating reagent supplied in the Biotrak RIA kits were mixed by thorough agitation and incubated at rt. for 5 min. The mixture was then centrifuged at 2500 g for 15 min. at 4° C. The supernatant from each sample tube was collected for analysis in the RIA assay. A 50 μl aliquot of the original or diluted supernatant was mixed with 50 μl of the Biotrak assay buffer in a 12×75 mm polypropylene tube. The I^125 labeled C3a or C4a and the specific antibody solutions (50 μl each from the kit) were added and incubated at rt. for 30 min. (for antibody to C3a, C4a, C5a and des Arg derivatives thereof, see Hugli et al. (1975) J. Biol. Chem. 250:1472-1478; Hugli (1975) J. Biol. Chem. 250:8293; and Hugli et al. (1981) J. Biol. Chem. 256:2685-2692). A 50 μl aliquot of the second antibody (goat anti-rabbit) was added to the tube and the mixture incubated for an additional 30 min. at rt. Two ml of isotonic saline was added and the tube was centrifuged at 2000 g for 10 min. at 4° C. to pellet the antigen-antibody complexes. The supernatant in the tubes was decanted and the tubes were counted for 1 min. in a Cobra Auto-gamma Model 5002 (Packard Instrument Co., Meriden, Conn.) scintillation counter. Analysis of each sample was performed in duplicate. Data was analyzed using RiaSmart software supplied by Packard Instruments and installed in the Cobra Auto-gamma counter.
C3a and C4a generation was examined in EDTA plasma of liver transplant patients (average values, n=19) with and without […] Futhan present. These subjects were stable transplant patients not undergoing a clinically detectable rejection episode.

[2] = tested on: in vitro complement activation (C3 and C4 conversion; MASP-2); assay: in vitro complement activation (C3a and C4a by RIA) in blood or plasma of normal donors; format: biochemical, human; conditions: for MASP activity: inferred from C4a generation in EDTA blood (FIG. 2); for C4 conversion in blood, additive combined with EDTA: additive plus EDTA, 60 min at rt (FIG. 2); for C4 conversion (C4a generation) in whole blood / C3a generation in whole blood: no EDTA; for C4 conversion (C4a generation) in whole blood: over 60 min at rt (FIG. 2); for C3a generation in whole blood: 0.15 mM Benzamidine, 20 μM Trasylol or 0.1 mg/ml Futhan, 0 time vs 60 min at rt (FIG. 2)
Experimental: as §1, §2
Blood from a normal donor was drawn into EDTA and 0 to 0.2 mg/ml Futhan was added over time indicated. Plasma was recovered within 30 min. of being drawn and a precipitating agent was added to the 0 time plasma sample (EDTA/p10) to prevent further C-activation. An EDTA/Futhan plasma sample (EDTA/p1) and an EDTA/Futhan blood sample (EDTA/b1) were stored for 1 hr. at 22° C. A separate set of EDTA/Futhan plasma samples were either stored at 4° C. for 24 hr (EDTA/p4) or frozen at -70° C. for 24 hr (EDTA/pF) and then thawed for analysis. C3a and C4a levels were determined using a radioimmunoassay procedure.
Whole blood from a normal donor was drawn into 0.15 mM benzamidine, 20 μM Trasylol or 0.1 mg/ml Futhan and processed either immediately (0 time) or after 60 min. at rt, and then analyzed for C3a and C4a.
In this experiment, whole EDTA (0.5 mg/ml) blood from a normal donor was incubated at 4° C. with and without 0.1 mg/ml Futhan added. The C3a and C4a levels were determined versus time over 23-hr.
Complement activation in EDTA plasma was compared with activation in EDTA/Futhan plasma at room temperature (22-24° C.) over a period of one hour (experiment 3A). […] All blood samples were drawn into EDTA, with and without 0.1 mg/ml Futhan present, and the plasma was collected (see Materials and Methods) and frozen at -70° C. These samples were thawed at 4° C. and analyzed after 0 and 60 min. at rt.

[3] = tested on: acute rejection episode in liver transplant patients; assay: treatment of rejection episodes in liver transplant patients; format: in vivo, human; conditions: two 1 g (I.V.) doses
From the text: Blood and urine samples were collected over a period of two years from 63 liver transplant patients during routine post-operative clinical visits. The patients' identities were concealed and no selection process or attempt was made to recruit patients for any other reason than that they had undergone orthotopic liver transplantation at The Scripps Clinic and Research Foundation. Immunosuppression was initiated with a regimen of cyclosporine A (CsA), azathioprine and steroids. Treatment for some of these patients was switched to FK506, but none was treated with OKT3. Patients were seen weekly in the outpatient transplant clinic after transplantation until their liver function tests stabilized. […] Measurement of the relevant clinical parameters was obtained during each visit. Liver biopsies were obtained whenever there was an abnormality in liver function tests.

[4] = tested on: Hageman factor; conditions: Hitomi et al. (1985); cited from earlier work
[5] = tested on: Factor Xa; conditions: Hitomi et al. (1985); cited from earlier work
[6] = n=20, stored at 4° C. for 24 hours
[7] = normal plasma, n = 20, processed immediately at rt, total data set
[8] = normal plasma, processed immediately at rt, values outside ± 2σ eliminated
[9] = normal donor, listed as benzamidine
[10] = Table III samples, plasma processed immediately

With `O=C(O)CN(CCN(CC(=O)O)CC(=O)O)CC(=O)O` [EDTA, ethylenediaminetetraacetic acid] the “C4a in liver transplant patient plasma after 60 min at rt” value ([1]; n=19, average) was 16.9 µg/mL, the “C4a in liver transplant patient plasma at 0 time” value ([1]; n=19, average) was 4.02 µg/mL and the “C4a level in liver transplant patient plasma at 0 time” value ([1]; n=19, average (experiment 3B)) was 4020 ± 6100 ng/mL. The “activity of the Lectin Pathway in EDTA plasma” value ([2]; Table II, line III) was “IN VITRO”, the “C4a elevation over 60 min in normal plasma” value ([2]; n=11, average, rt) was 3-4 fold and the “C4a level in normal plasma at 0 time” value ([2]; n=11, frozen at -70° C., thawed at 4° C., 0 min at rt (experiment 3A)) was 242 ± 95 ng/mL. The “C4a level in normal plasma after 60 min” value ([2]; n=11, frozen at -70° C., thawed at 4° C., 60 min at rt (experiment 3A)) was 768 ± 392 ng/mL, the “C3a values in normal plasma” value [2, 6] was 0.60 ± 0.026 µg/mL and the “C4a levels in normal plasma” value [2, 6] was 0.32 ± 0.017 µg/mL. The “C4a level in whole blood at 4° C., end” value ([2]; normal donor, EDTA 0.5 mg/ml, after 23 hr) was “more than 1700 ng/ml”, the “C4a level in whole blood at 4° C., start” value ([2]; normal donor, EDTA 0.5 mg/ml, start of 23-hr period) was 300 ng/mL and the “C3a, mean ± standard deviation, data set I” value ([2]; normal plasma, n = 20, EDTA 1 mg/ml or Futhan 0.2 mg/ml and EDTA, processed immediately at rt, total data set) was 599 ± 263 ng/mL. The “C3a, range of values, data set I” value [2, 7] was 349 to 1344 ng/mL, the “C4a, mean ± standard deviation, data set I” value [2, 7] was 316 ± 169 ng/mL and the “C4a, range of values, data set I” value [2, 7] was 130 to 774 ng/mL. For the same compound, the “C3a, mean ± standard deviation, data set II” value [2, 8] was 484 ± 110 ng/mL, the “C3a, range of values, data set II” value [2, 8] was 349 to 722 ng/mL and the “C4a, mean ± standard deviation, data set II” value [2, 8] was 268 ± 95 ng/mL. For the same compound, the “C4a, range of values, data set II” value [2, 8] was 130 to 433 ng/mL, the “C3 conversion when EDTA was added to the blood” value ([2]; normal whole blood (FIG. 2)) was “virtually no C3 was converted” and the “C4 conversion when EDTA was added to the blood” value ([2]; normal whole blood (FIG. 2)) was “remarkable increase in C4 conversion”. The “C3a levels in whole blood at 4° C. versus time, relative to Futhan/EDTA blood” value ([2]; over 23 hr) was “only slightly higher” and the “C3a generation in normal blood at 4° C.” value ([2]; over a 27-hr period) was “sufficient to prevent C3a generation”.

With `C[C@H]1C[C@@H]2[C@H]([C@@H](O)C[C@@]3(C)[C@H]2CC[C@]3(O)C(=O)CO)[C@@]2(C)C=CC(=O)C=C12` [methylprednisolone] the “course of the rejection episode after treatment” value [3] was “resolved rapidly”.

In the case of `N=C(N)c1ccccc1` [Benzamidine, benzamidine], the MASP activity [2] is reported as “does not inhibit MASP activity”, the “C4 conversion in blood, additive combined with EDTA” value (shortened to “C4 conversion in blood”) ([2]; normal donor) is reported as “extensive conversion of C4 occurred” and the “C4 conversion in blood” value [2, 9] is reported as “high levels of C4a are generated”. For the same compound, the “C4 conversion (C4a generation) in whole blood” value ([2]; normal donor) was “relatively effective in preventing C4 conversion”, the “C4 conversion (C4a generation) in whole blood” value [2, 9] was “no C4a generated in whole blood” and the “C3a generation in whole blood” value ([2]; normal donor) was “failed to prevent C3a generation”.

In the case of `CS(=O)(=O)O.CS(=O)(=O)O.N=C(N)Nc1ccc(C(=O)Oc2ccc3cc(C(=N)N)ccc3c2)cc1` [Futhan, 6-amidino-2-naphthyl-p-guanidinobenzoate dimethanesulfonate], the “time-dependent C3a and C4a elevation in patient EDTA plasma” value ([1]; 60 min at room temperature (experiment 3B)) is reported as “effectively prevented”, the “levels of C3a and C4a after 1 hr of incubation at rt” value ([1]; nineteen patients, 0.1 mg/ml Futhan and 0.5 mg/ml EDTA) is reported as “unchanged in most samples” and the “C4 converting activity in EDTA plasma” value ([1]; transplant patients) is reported as “fully inhibitable”. For the same compound, the “C4 conversion / C-activation versus time in normal EDTA plasma” value ([2]; 0.01 mg/ml Futhan, dimethanesulfonate) was “measurable reduction in C4 conversion; also recorded: effective in protecting normal plasma from C-activation”, the “C4 cleavage in normal EDTA plasma” value ([2]; 0.10 mg/ml Futhan, over a 24-hour period) was “virtually eliminated C4 cleavage” and the “C3a levels in EDTA samples” value ([2]; 0.2 mg/ml Futhan, compared with lower Futhan levels (experiment 1)) was “somewhat higher”. For the same compound, the “activation of C4 in normal EDTA plasma” value ([2]; Futhan added (experiment 1)) was “abolished”, the “activity of all pathways with Futhan (Futhan/EDTA)” value ([2]; Table II, line IV) was “NO IN VITRO C-ACTIVATION” and the “reduction in C3a levels by addition of Futhan” value [2, 10] was “no significant reduction”. The “reduction in C4a levels by addition of Futhan” value [2, 10] was “only marginal reduction”, the MASP activity [2] was “inhibits MASP” and the “C3a and C4a generation in EDTA plasma from normal donors” value ([2]; n=11, 0.1 mg/ml Futhan, rt, one hour (experiment 3A)) was “effectively inhibited”. The “C4 conversion in blood” value ([2]; normal donor, dimethanesulfonate) was “fully effective; also recorded: fully blocked in vitro C-activation”, the “C3a generation in whole blood” value ([2]; normal donor) was “effective inhibitor” and the “generation of C3a or C4a in stored samples” value ([2]; stored 24 hr on ice or frozen and thawed) was “minimal generation of either C3a or C4a”. For the same compound, the “stabilizing C3 and C4 in normal whole blood” value ([2]; with or without EDTA, up to one hour at room temperature (FIG. 2)) was “effective in stabilizing C3 and C4”, the “effective inhibitory level toward Hageman factor” value [4] was “sub-micromolar level” and the “effective inhibitory level toward Factor Xa” value [5] was “sub-micromolar level”.
